The IC50 is the midpoint of a concentration-inhibition curve.

Molecules are shown by their SMILES.

In the first test the target is T1, Recombinant human renin (Homo sapiens, UniProt P00797).
T1 construct: isolate the active form (residues 67-406); made in house; host or cells: FreeStyle 293-F cells (transient expression of pcDNA3.1(+)/hREN)
T1 sequence (P00797 67-406): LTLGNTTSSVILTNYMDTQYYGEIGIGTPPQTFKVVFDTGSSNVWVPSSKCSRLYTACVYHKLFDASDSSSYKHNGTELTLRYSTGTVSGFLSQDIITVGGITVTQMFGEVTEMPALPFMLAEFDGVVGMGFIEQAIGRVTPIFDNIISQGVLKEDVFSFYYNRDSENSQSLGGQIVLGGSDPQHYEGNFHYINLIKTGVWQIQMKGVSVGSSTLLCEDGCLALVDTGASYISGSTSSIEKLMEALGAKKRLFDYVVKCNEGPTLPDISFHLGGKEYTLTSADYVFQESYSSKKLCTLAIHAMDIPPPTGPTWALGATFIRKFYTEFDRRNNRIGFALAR
The experiment in a line: In vitro enzymatic activity assay of Renin inhibitors (fluorescence, QXL520/HiLyteFluo488 peptide substrate). It counts as biochemical.
Settings: not given
The text has this: Test compounds in varying concentrations may be reacted with recombinant human renin in the presence of substrate, e.g., QXL520-γ-Abu-Ile-His-Pro-Phe-His-Leu-Val-Ile-His-Thr-Lys (HiLyteFluo488)-Arg-OH (Anaspec, San Jose, Calif.). The reaction can be followed kinetically using fluorescence (excitation λ=485 nm; emission λ=538 nm). Inhibition constants (IC50) may be calculated by non-linear curve fitting of the compound concentrations and fluorescence intensities to the standard IC50 equation.
Solutions of test compounds in varying concentrations (<2 mM final concentration) are prepared in dimethyl sulfoxide (DMSO) and then diluted into assay buffer comprising 50 mM Hepes, 1 mM EDTA, 1 mM DTT, 0.1 mg/ml BSA, 0.01% Brij35, pH 7.4. Alternatively, the assay can be performed with a high BSA concentration, wherein the buffer contains an additional 2% BSA.
Recombinant human renin (3 nM final concentration) is added to the dilutions and pre-incubated with the compounds for 10 minutes at 37° C. As described in Examples A-C above, human Renin can be obtained by expressing preprorenin (residue 1-406) in mammalian cells, treating the prorenin (residues 24-406) contained in the culture supernatant with trypsin, and isolate the active form (residues 67-406). After pre-incubation, the reaction is initiated with 1 μM of substrate QXL520-γ-Abu-Ile-His-Pro-Phe-His-Leu-Val-Ile-His-Thr-Lys (HiLyteFluo488)-Arg-OH (Anaspec, San Jose, Calif.). The final DMSO in the assay is 5%. The total volume of the reaction mixture is 20 μL, which can be placed on Greiner 384-well small volume plates.
Renin activity may be determined via fluorescence (excitation λ=485 nm; emission λ=538 nm), e.g., on a Molecular Devices SPECTROmax GEMINI XPS. The fluorescence intensity is determined upon the addition of substrate and determined again after incubation at 37° C. for one hour. The fluorescence intensity of a blank (no inhibition) using vehicle alone is also determined. Renin activity is linearly proportional to the change in fluorescence observed (final−initial).
The percent inhibition of Renin at a given compound concentration is defined as:
100%×[1−(Fcompound/Fblank)]
where Fcompound is the observed fluorescence at a given concentration of test compound and Fblank is the observed fluorescence in the presence of vehicle alone.
The pIC50 value (negative log of the molar concentration of the compound that produces 50% inhibition) of a test compound is calculated by non-linear least squares curve fitting of the equation: […]
to percent inhibition versus compound concentration. The 50% inhibitory concentration (IC50) of a test compound is calculated by raising 10 to the negative pIC50 (10^−pIC50).
Take `CN1CCN(C(=O)Oc2ccc(C[C@@H]3CNCCN3C(=O)CCc3ccccc3Oc3ccccc3)cc2)CC1` [Example 72, (R)-4-((1-(3-(2-phenoxyphenyl)propanoyl)piperazin-2-yl)methyl)-phenyl 4-methylpiperazine-1-carboxylate]: the IC50 lay within 0.5 to 5 µM.

As to `O=C(Oc1ccc(C[C@@H]2CNCCN2C(=O)CCc2ccccc2Oc2ccccc2)cc1)N1CCOCC1` [Example 73, (R)-4-((1-(3-(2-phenoxyphenyl)propanoyl)piperazin-2-yl)methyl)-phenyl morpholine-4-carboxylate], the IC50 was 0.5 to 5 µM.

For the compound `CCN(CC)C(=O)Oc1ccc(C[C@@H]2CNCCN2C(=O)CCc2ccccc2Oc2ccccc2)cc1` [Example 74, (R)-4-((1-(3-(2-phenoxyphenyl)propanoyl)piperazin-2-yl)methyl)-phenyl diethylcarbamate], the IC50 fell in the range of 0.5 to 5 µM.

The test is the same for the next values; noted with them: recombinant human renin 3 nM, 1 μM substrate, 37° C., pH 7.4; values given as ranges; read-out: IC50 of Exemplified Compounds Against Renin.
For `CC(=O)NCCCc1ccccc1Oc1ccccc1CCC(=O)N1CCNC[C@H]1Cc1ccccc1` [Example 48, (R)—N-(3-(2-(2-(3-(2-benzylpiperazin-1-yl)-3-oxopropyl)phenoxy)-phenyl)propyl)acetamide], the IC50 was in the range of 0.5 to 5 µM.

For the compound `CC(=O)NCCc1cc(C)ccc1Oc1ccccc1CCC(=O)N1CCNC[C@H]1Cc1ccccc1` [Example 49, (R)—N-(2-(2-(3-(2-benzylpiperazin-1-yl)-3-oxopropyl)phenoxy)-5-methylphenethyl)acetamide], the IC50 was < 0.5 µM.

As for `Cc1ccc(Oc2ccccc2CCC(=O)N2CCNC[C@H]2Cc2ccccc2)cc1` [Example 50, (R)-1-(2-benzylpiperazin-1-yl)-3-(2-(p-tolyloxy)phenyl)propan-1-one], the IC50 is < 0.5 µM.

For `COc1ccc(Oc2ccccc2CCC(=O)N2CCNC[C@H]2Cc2ccccc2)cc1` [Example 51, (R)-1-(2-benzylpiperazin-1-yl)-3-(2-(4-methoxyphenoxy)-phenyl)propan-1-one], the IC50 lay in the range of 0.5 to 5 µM.

Regarding `O=C(CCC1(c2ccccc2)CCCCC1=O)N1CCNC[C@H]1Cc1ccccc1` (stereo partly drawn) [Example 52, 2-(3-((R)-2-benzylpiperazin-1-yl)-3-oxopropyl)-2-phenylcyclohexanone], the IC50 fell in the range of 5 to 50 µM.

Consider `O=C(CCc1ccccc1Cc1ccccc1)N1CCNC[C@H]1Cc1ccccc1` [Example 53, (R)-3-(2-benzylphenyl)-1-(2-benzylpiperazin-1-yl)propan-1-one], for which the IC50 was < 0.5 µM.

`Cc1nc(-c2ccc(Cl)cc2)c(CCC(=O)N2CCNC[C@H]2Cc2ccccc2)o1` [Example 54, (R)-1-(2-benzylpiperazin-1-yl)-3-(4-(4-chlorophenyl)-2-methyloxazol-5-yl)propan-1-one]: the IC50 fell in the range of 5 to 50 µM.

Turning to `O=C(CCc1nc2ccccc2oc1=O)N1CCNC[C@H]1Cc1ccccc1` [Example 55, (R)-3-(3-(2-benzylpiperazin-1-yl)-3-oxopropyl)-2H-benzo[b][1,4]-oxazin-2-one], the half-maximal inhibitory concentration (IC50) is 5 to 50 µM.

For the compound `O=C(CCc1ccccc1Cc1ccc(Cl)cc1)N1CCNC[C@H]1Cc1ccccc1` [Example 56, (R)-1-(2-benzylpiperazin-1-yl)-3-(2-(4-chlorobenzyl)phenyl)propan-1-one], the IC50 was < 0.5 µM.

Consider `COc1ccccc1OCC(=O)N1CCNC[C@H]1Cc1ccccc1` [Example 57, (R)-1-(2-benzylpiperazin-1-yl)-2-(2-methoxyphenoxy)ethanone], for which the IC50 is > 50 µM.

Take `O=C(CCN(c1ccccc1)c1ccccc1)N1CCNC[C@H]1Cc1ccccc1` [Example 58, (R)-1-(2-benzylpiperazin-1-yl)-3-(diphenylamino)propan-1-one]: the IC50 was in the range of 5 to 50 µM.

Take `COc1cc(CCC(=O)N2CCNC[C@H]2Cc2ccccc2)ccc1OC(C)=O` [Example 59, (R)-4-(3-(2-benzylpiperazin-1-yl)-3-oxopropyl)-2-methoxyphenyl acetate]: the IC50 was > 50 µM.

For the compound `O=C(CCC(=O)N1CCNC[C@H]1Cc1ccccc1)N(c1ccccc1)c1ccccc1` [Example 60, (R)-4-(2-benzylpiperazin-1-yl)-4-oxo-N,N-diphenylbutanamide], the 50% inhibitory concentration (IC50) is 0.5 to 5 µM.

For the compound `CC1(C)CC(C(CC(=O)N2CCNC[C@H]2Cc2ccccc2)c2ccccc2)CCO1` (stereo partly drawn) [Example 61, 1-((R)-2-benzylpiperazin-1-yl)-3-(2,2-dimethyltetrahydro-2H-pyran-4-yl)-3-phenylpropan-1-one], the IC50 was < 0.5 µM.

For the compound `O=C(COc1cccc(Cc2ccccc2)c1)N1CCNC[C@H]1Cc1ccccc1` [Example 62, (R)-2-(3-benzylphenoxy)-1-(2-benzylpiperazin-1-yl)ethanone], the IC50 lay in the range of 5 to 50 µM.

As for `O=C(CCc1nc(-c2ccccc2)c(-c2ccccc2)o1)N1CCNC[C@H]1Cc1ccccc1` [Example 63, (R)-1-(2-benzylpiperazin-1-yl)-3-(4,5-diphenyloxazol-2-yl)propan-1-one], the IC50 was 0.5 to 5 µM.

Regarding `O=C(NC1(CC(=O)N2CCNC[C@H]2Cc2ccccc2)CCCCC1)c1ccccc1` [Example 64, (R)—N-(1-(2-(2-benzylpiperazin-1-yl)-2-oxoethyl)cyclohexyl)benzamide], the half-inhibitory concentration (IC50) lay within 5 to 50 µM.

Consider `O=C(CSC(c1ccccc1)c1ccccc1)N1CCNC[C@H]1Cc1ccccc1` [Example 65, (R)-2-(benzhydrylthio)-1-(2-benzylpiperazin-1-yl)ethanone], for which the IC50 is 0.5 to 5 µM.

As for `N#CCCc1ccccc1Oc1ccccc1CCC(=O)N1CCNC[C@H]1Cc1ccccc1` [Example 66, (R)-3-(2-(2-(3-(2-benzylpiperazin-1-yl)-3-oxopropyl)phenoxy)phenyl)propanenitrile], the IC50 is < 0.5 µM.

For the compound `COC(=O)CCc1ccccc1Oc1ccccc1CCC(=O)N1CCNC[C@H]1Cc1ccccc1` [Example 67, (R)-methyl 3-(2-(2-(3-(2-benzylpiperazin-1-yl)-3-oxopropyl)phenoxy)phenyl)propanoate], the IC50 was < 0.5 µM.

Turning to `O=C(CCc1ccccc1Oc1ccccc1)N1CCNC[C@H]1Cc1ccc(O)cc1` [Example 68, (R)-1-(2-(4-hydroxybenzyl)piperazin-1-yl)-3-(2-phenoxyphenyl)-propan-1-one], the IC50 is < 0.5 µM.

As to `COC(=O)COc1ccc(C[C@@H]2CNCCN2C(=O)CCc2ccccc2Oc2ccccc2)cc1` [Example 69, (R)-methyl 2-(4-((1-(3-(2-phenoxyphenyl)propanoyl)piperazin-2-yl)methyl)phenoxy)acetate], the IC50 fell in the range of 0.5 to 5 µM.

`NC(=O)COc1ccc(C[C@@H]2CNCCN2C(=O)CCc2ccccc2Oc2ccccc2)cc1` [Example 70, (R)-2-(4-((1-(3-(2-phenoxyphenyl)propanoyl)piperazin-2-yl)methyl)phenoxy)acetamide]: the IC50 is < 0.5 µM.

Take `CN(C)C(=O)COc1ccc(C[C@@H]2CNCCN2C(=O)CCc2ccccc2Oc2ccccc2)cc1` [Example 71, (R)—N,N-dimethyl-2-(4-((1-(3-(2-phenoxyphenyl)propanoyl)piperazin-2-yl)methyl)phenoxy)acetamide]: the half-inhibitory concentration (IC50) fell in the range of 0.5 to 5 µM.

With `COCCCOc1ccccc1CCC(=O)N1CCNC[C@H]1Cc1ccccc1` [Example 75, (R)-1-(2-benzylpiperazin-1-yl)-3-(2-(3-methoxypropoxy)phenyl)-propan-1-one], the IC50 was in the range of 0.5 to 5 µM.

For `O=C(CCc1ccccc1OCCCO)N1CCNC[C@H]1Cc1ccccc1` [Example 76, (R)-1-(2-benzylpiperazin-1-yl)-3-(2-(3-hydroxypropoxy)phenyl)-propan-1-one], the IC50 is 0.5 to 5 µM.

`COCCOCCCOc1ccccc1CCC(=O)N1CCNC[C@H]1Cc1ccccc1` [Example 77, (R)-1-(2-benzylpiperazin-1-yl)-3-(2-(3-(2-methoxyethoxy)propoxy)phenyl)propan-1-one]: the 50% inhibitory concentration (IC50) was in the range of 0.5 to 5 µM.

The values above are taken from patent US20100210635A1, “RENIN INHIBITORS” (Takeda Pharmaceutical Company Limited, priority 2006, published 2010).
